Results on 10 molecules are retold here after patent US20250011314A1, “MICROBIOCIDAL PYRAZOLE DERIVATIVES” (SYNGENTA CROP PROTECTION AG, priority 2021, published 2025).

The subject of test [1] is Glomerella lagenarium (Colletotrichum lagenarium). Description: Glomerella lagenarium (Colletotrichum lagenarium) / liquid culture (anthracnose). As to conditions: Colletotrichum orbiculare, liquid culture (PDB), 24° C., growth inhibition photometrically 3-4 days after application, read-out: control of Glomerella lagenarium compared to untreated control. The format is cell-based. How it is done:
Example B-3: Glomerella lagenarium (Colletotrichum lagenarium)/Liquid Culture (Anthracnose) Conidia of the fungus from cryogenic storage are directly mixed into nutrient broth (PDB potato dextrose broth). After placing a (DMSO) solution of test compound into a microtiter plate (96-well format), the nutrient broth containing the fungal spores is added. The test plates are incubated at 24° C. and the inhibition of growth is measured photometrically 3-4 days after application.

For test [2], the system named is Monographella nivalis (Microdochium nivale). Description: Monographella nivalis (Microdochium nivale) / liquid culture (foot rot cereals). It is filed as cell-based. As to conditions: liquid culture (PDB), 24° C., growth inhibition photometrically 4-5 days after application, read-out: control of Monographella nivalis compared to untreated control. How it is done: Example B-7: Monographella Nivalis (Microdochium nivale)/Liquid Culture (Foot Rot Cereals) Conidia of the fungus from cryogenic storage are directly mixed into nutrient broth (PDB potato dextrose broth). After placing a (DMSO) solution of test compound into a microtiter plate (96-well format), the nutrient broth containing the fungal spores is added. The test plates are incubated at 24° C. and the inhibition of growth is determined photometrically 4-5 days after application.

The subject of test [3] is Mycosphaerella graminicola (Septoria tritici). Put plainly: Mycosphaerella graminicola (Septoria tritici) / liquid culture (Septoria blotch). The format is cell-based. As to conditions: Zymoseptoria tritici, liquid culture (PDB), 24° C., growth inhibition photometrically 4-5 days after application, read-out: control of Mycosphaerella graminicola compared to untreated control. How it is done:
Example B-12: Mycosphaerella graminicola (Septoria tritici)/Liquid Culture (Septoria Blotch) Conidia of the fungus from cryogenic storage are directly mixed into nutrient broth (PDB potato dextrose broth). After placing a (DMSO) solution of test compound into a microtiter plate (96-well format), the nutrient broth containing the fungal spores is added. The test plates are incubated at 24° C. and the inhibition of growth is determined photometrically 4-5 days after application.

For test [4], the system named is Magnaporthe grisea (Pyricularia oryzae). It is filed as in vivo. Particulars: 200 ppm; rice leaf segments cv. Ballila; inoculated 2 days after application; assessed 5-7 days after application.

Regarding `Cn1cc(C(C)(CNC(=O)c2cc(-c3ccc(F)cc3F)on2)c2nc(Cl)cs2)cn1` (racemic) [Compound P-4, N-[2-(4-chlorothiazol-2-yl)-2-(1-methylpyrazol-4-yl)propyl]-5-(2,4-difluorophenyl)isoxazole-3-carboxamide], the inhibition of growth at 20 ppm in test [1], in test [2] and in test [3] was ≥ 80% in each case.
For `Cn1cc(C(C)(CNC(=O)c2cc(-c3ccc(F)cc3F)on2)c2nc(Cl)cs2)cn1` (single isomer, unassigned) [Compound P-5, N-[2-(4-chlorothiazol-2-yl)-2-(1-methylpyrazol-4-yl)propyl]-5-(2,4-difluorophenyl) isoxazole-3-carboxamide], the inhibition of growth at 20 ppm in test [1], in test [2] and in test [3] was ≥ 80% each time.
Turning to `Cn1cc(C(C)(CNC(=O)c2cc(-c3ccc(F)cc3F)on2)c2ccn(C)n2)cn1` (stereo not shown) [Compound P-1, 5-(2,4-difluorophenyl)-N-[2-(1-methylpyrazol-3-yl)-2-(1-methylpyrazol-4-yl)propyl]isoxazole-3-carboxamide], the inhibition of growth at 20 ppm in test [1], in test [2] and in test [3] was ≥ 80% in each case. Besides, the “control of Magnaporthe grisea compared to untreated control” value in test [4] is “at least 80%”.
On to `Cn1cc(C(C)(CNC(=O)c2cc(-c3ccc(F)cc3F)on2)c2nccs2)cn1` (stereo not shown) [Compound P-2, 5-(2,4-difluorophenyl)-N-[2-(1-methylpyrazol-4-yl)-2-thiazol-2-yl-propyl]isoxazole-3-carboxamide], for which the inhibition of growth at 20 ppm in test [1], in test [2] and in test [3] was ≥ 80% each time.
For `Cn1cc(C(C)(CNC(=O)c2cc(-c3ccc(F)cc3F)on2)c2nc(Cl)c(Cl)s2)cn1` (stereo not shown) [Compound P-3, N-[2-(4,5-dichlorothiazol-2-yl)-2-(1-methylpyrazol-4-yl)propyl]-5-(2,4-difluorophenyl)isoxazole-3-carboxamide], the inhibition of growth at 20 ppm in test [1], in test [2] and in test [3] was ≥ 80% each time.
As for `Cn1cc(C(C)(CNC(=O)c2cc(-c3ccc(F)cc3F)on2)c2ncc(Br)s2)cn1` (stereo not shown) [Compound P-7, N-[2-(5-bromothiazol-2-yl)-2-(1-methylpyrazol-4-yl)propyl]-5-(2,4-difluorophenyl) isoxazole-3-carboxamide], the inhibition of growth at 20 ppm in test [1], in test [2] and in test [3] was ≥ 80% each time.
For `Cn1cc(C(C)(CNC(=O)c2cc(-c3ccc(F)cc3F)on2)c2nc(Br)cs2)cn1` (stereo not shown) [Compound P-8, N-[2-(4-bromothiazol-2-yl)-2-(1-methylpyrazol-4-yl)propyl]-5-(2,4-difluorophenyl) isoxazole-3-carboxamide], the inhibition of growth at 20 ppm in test [1], in test [2] and in test [3] was ≥ 80% in each case.
On to `Cn1cc(C(C)(CNC(=O)c2cc(-c3ccc(F)cc3F)on2)c2nc(C(F)(F)F)cs2)cn1` (stereo not shown) [Compound P-9, 5-(2,4-difluorophenyl)-N-[2-(1-methylpyrazol-4-yl)-2-[4-(trifluoromethyl)thiazol-2-yl]propyl]isoxazole-3-carboxamide], for which the inhibition of growth at 20 ppm in test [1], in test [2] and in test [3] was ≥ 80% in each case.
Regarding `Cn1cc(C(C)(CNC(=O)c2cc(-c3ccc(F)cc3F)on2)c2csc(Br)n2)cn1` (stereo not shown) [Compound P-10, N-[2-(2-bromothiazol-4-yl)-2-(1-methylpyrazol-4-yl)propyl]-5-(2,4-difluorophenyl) isoxazole-3-carboxamide], the inhibition of growth at 20 ppm in test [1], in test [2] and in test [3] was ≥ 80% in each case.
For the molecule `Cn1cc(C(C)(CNC(=O)c2cc(-c3ccc(F)cc3F)on2)c2nc(C3CC3)cs2)cn1` (stereo not shown) [Compound P-11, N-[2-(4-cyclopropylthiazol-2-yl)-2-(1-methylpyrazol-4-yl)propyl]-5-(2,4-difluorophenyl) isoxazole-3-carboxamide], the inhibition of growth at 20 ppm in test [1], in test [2] and in test [3] was ≥ 80% each time.
